The text below walks through data of patent US6548549B1, “Acylaminosalicylic acid amides and their uses as pesticides” (Bayer Aktiengesellschaft, priority 1995, dated 2003).

One series has as its system Botrytis cinerea. In words: Botrytis test (beans)/protective. Format: in vivo. The note with it: protective, 500 ppm active compound, lesion size 3 days after inoculation. The method, then: Botrytis Test (Beans)/Protective Solvent: 4.7 parts by weight of acetone Emulsifier: 0.3 part by weight of alkylaryl polyglycol ether To produce a suitable preparation of active compound, 1 part by weight of active compound is mixed with the stated amounts of solvent and emulsifier, and the concentrate is diluted with water to the desired concentration. To test for protective activity, young plants are sprayed with the preparation of active compound. After the spray coating has dried on, 2 small pieces of agar covered with Botrytis cinerea are placed on each leaf. The inoculated plants are then placed in a darkened humid chamber at 20° C. 3 days after the inoculation, the size of the lesions on the leaves is evaluated.

Series [1] concerns larvae of the green rice leafhopper (Nephotettix cincticeps). In words: Nephotettix test. It counts as in vivo. The note with it: rice seedlings dipped, active compound concentration 0.001%, after 7 days. The method, then: Nephotettix Test Solvent: 7 parts by weight of dimethylformamide Emulsifier: 1 part by weight of alkylaryl polyglycol ether To produce a suitable preparation of active compound, 1 part by weight of active compound is mixed with the stated amount of solvent and the stated amount of emulsifier, and the concentrate is diluted with water to the desired concentration. Rice seedlings (Oryza sativa) are treated by being dipped into the preparation of the active compound of the desired concentration and populated with larvae of the green rice leafhopper (Nephotettix cincticeps) while the seedlings are still moist. After the specified period of time, the destruction in % is determined. 100% means that all the leafhoppers have been killed; 0% means that none of the leafhoppers have been killed.

Another series deals with Pyricularia oryzae. Format: in vivo. The following applies: rice, protective, active compound concentration 0.05%, evaluation 4 days after inoculation.
The subject of series [2] is Pseudocercosporella herpotrichoides. In words: Pseudocercosporella herpotrichoides test (wheat)/protective. The following applies: protective, application rate 250 g/ha, evaluation 21 days after inoculation. Format: in vivo. The method, then: Pseudocercosporella herpotrichoides Test (Wheat)/Protective Solvent: 10 parts by weight of N-methyl-pyrrolidone Emulsifier: 0.6 part by weight of alkylaryl polyglycol ether To produce a suitable preparation of active compound, 1 part by weight of active compound is mixed with the stated amounts of solvent and emulsifier, and the concentrate is diluted with water to the desired concentration. To test for protective activity, young plants are sprayed with the preparation of active compound at the rate of application shown. After the spray coating has dried on, the stem base of the plants is inoculated with spores of Pseudocercosporella herpotrichoides. […] Evaluation is carried out 21 days after the inoculation.

The test system of a further series is Sphaerotheca fuliginea. In words: Sphaerotheca test (cucumber)/protective. It counts as in vivo. The following applies: protective, 100 ppm active substance, evaluation 10 days after inoculation. How it is done: Sphaerotheca Test (Cucumber)/Protective Solvent: 4.7 parts by weight of acetone Emulsifier: 0.3 part by weight of alkylaryl polyglycol ether To produce a suitable preparation of active compound, 1 part by weight of active compound is mixed with the stated amounts of solvent and emulsifier, and the concentrate is diluted with water to the desired concentration. To test for protective activity, young plants are sprayed with the preparation of active compound. After the spray coating has dried on, the plants are dusted with conidia of the fungus Sphaerotheca fuliginea. The plants are then placed in a greenhouse at 23 to 24° C. and at a relative atmospheric humidity of about 75%. Evaluation is carried out 10 days after the inoculation.

The test system of series [3] is caterpillars of the fall armyworm Spodoptera frugiperda. In words: Spodoptera test. It counts as in vivo. The following applies: cabbage leaves dipped, concentration 0.1%, after 7 days. The method, then:
Spodoptera Test Solvent: 7 parts by […]: 1 part by weight of alkylaryl polyglycol ether To produce a suitable preparation of active compound, 1 part by weight of active compound is mixed with the stated amount of solvent and the stated amount of emulsifier, and the concentrate is diluted with water to the desired concentration. Cabbage leaves (Brassica oleracea) are treated by being dipped into the preparation of the active compound of the desired concentration and are populated with caterpillars of the fall armyworm Spodoptera frugiperda while the leaves are still moist. After the specified period of time, the activity in % is determined. 100% means that all the caterpillars have been killed; 0% means that none of the caterpillars have been killed.

Series [4] has as its system mustard beetle larvae (Phaedon cochleariae). In words: Phaedon larvae test. It counts as in vivo. The following applies: cabbage leaves dipped, active compound concentration 0.01%, after 7 days. The method, then:
Phaedon Larvae Test Solvent: 7 parts by weight of dimethylformamide Emulsifier: 1 part by weight of alkylaryl polyglycol ether To produce a suitable preparation of active compound, 1 part by weight of active compound is mixed with the stated amount of solvent and the stated amount of emulsifier, and the concentrate is diluted with water to the desired concentration. Cabbage leaves (Brassica oleracea) are treated by being dipped into the preparation of the active compound of the desired concentration and are populated with mustard beetle larvae (Phaedon cochleariae) while the leaves are still moist. After the specified period of time, the destruction in % is determined. 100% means that all the beetle larvae have been killed; 0% means that none of the beetle larvae have been killed.

In the series on Botrytis cinerea, `CCc1ccc(C(C)NC(=O)c2cccc(NC=O)c2O)cc1` (stereo not drawn) [Example 16] came in with an efficacy of 90%. Consider `CC(NC(=O)c1cccc(NC=O)c1O)C1CC=CCC1` (stereo not drawn) [Example 71], for which, in series [1], the destruction turned out to be 100%.

`O=CNc1cccc(C(=O)NCc2cccc(C(F)(F)F)c2)c1O` [Example 39]: the destruction in series [1] came out at 100%.

Molecule `O=CNc1cccc(C(=O)Nc2ccc(-c3ccccc3)cc2)c1O` [Example 2, 3-formamido-2-hydroxy-N-(4-phenylphenyl)-benzamide] displayed a melting point of 190 °C. In the series with Botrytis cinerea, the efficacy worked out at 90%. Molecule `O=CNc1cccc(C(=O)Nc2ccc(Oc3ccc(Cl)cc3)c(Cl)c2)c1O` [Example 4] had an efficacy in the series with Botrytis cinerea of 90%. `O=CNc1cccc(C(=O)Nc2ccc(Oc3cccc(C(F)(F)F)c3)cc2)c1O` [Example 5]: the efficacy entry in the series on Pyricularia oryzae is reported as “over 80%”; in series [2], “over 80%”; with Sphaerotheca fuliginea, “over 80%”; in the series with Botrytis cinerea it was 90%. Regarding `CC(NC(=O)c1cccc(NC=O)c1O)c1ccc(Cl)cc1Cl` (stereo not drawn) [Example 15], the efficacy in the series on Botrytis cinerea is given as 90%. The molecule `CCc1ccc(-c2ccc(CCNC(=O)c3cccc(NC=O)c3O)cc2)cc1` [Example 47] came in with a destruction rate in series [3] of 85%. This molecule also returned a destruction in series [4] of 100%. Turning to `COc1cccc(C(C)NC(=O)c2cccc(NC=O)c2O)c1` (stereo not drawn) [Example 10], the efficacy with Botrytis cinerea is 90%.

The molecule `O=CNc1cccc(C(=O)NCc2ccc(F)cc2)c1O` [Example 35] showed a destruction in series [1] of 100%. `CC(NC(=O)c1cccc([N+](=O)[O-])c1OCc1ccccc1)c1cccc(C(F)(F)F)c1` (stereo not drawn) [Example V-34]: the destruction in series [4] is 100%.

`O=C(Nc1ccc(-c2ccccc2)cc1)c1cccc([N+](=O)[O-])c1O` [IV-a-1, 3-nitro-2-hydroxy-N-(4-phenyl-phenyl)-benzamide] registered a melting point of 152 °C. On to `CC(NC(=O)c1cccc(NC=O)c1O)c1ccc(F)cc1` (stereo not drawn) [Example 3, 3-formamido-2-hydroxy-N-[1-(4-fluorphenyl)-ethyl)-benzamide], for which the efficacy in the series on Botrytis cinerea came to 90%.

The term melting point denotes the temperature, or range, at which the solid turns liquid.
